Test results reported in patent US7259148B2, “Hepatoprotective activity of 2′-p-hydroxybenzoylmussaenosidic acid” (Council of Scientific & Industrial Research, priority 2003, dated 2007).

Assays:
[1] = system: CCl4 induced hepatic injury in rats; experiment: Hepatoprotective activity (in vivo) against CCl4 induced hepatic injury in rats
Source text: 033 and 033 (2) reduced the elevated levels of serum OPT, GOT, ALP, bilirubin, TG and liver homogenate lipid peroxidation and increased the GSH level. […] The same with silymarin was: 58.44, 51:63, 52,26,57.50,41.30,62.05 & 60.15% respectively. (Table-1). [table]

[2] = system: GalN induced hepatic injury in rats; experiment: Hepatoprotective activity (in vivo) against GalN (galactosamine) induced hepatic injury in rats
Source text: On treatment of experimental animals with galactosamine (GaIN) induced hepatic damage the hepatoprotective activity observed with 033 and 033 (2) was 59.58 & 50.75, 56.62 & 43.64, 54.28 & 50.11, 57.71 & 57.57, 57.89 & 44.76 percent in serum GPT, GOT, Bilirubin, ALP, and TG respectively and 67.51 & 38.65, 66-56 & 48.10 percent in liver homogenate lipid peroxidation (LP) and GSH respectively. The same with silymarin was 57.38, 55.40, 60.00. 53.54,46.17, 69.59, 67.18 percent respectively (Table-2). Advantages of the present invention over currently used plant based hepatoprotectives: • 1. […] Silymarin is a mixture of three constituents whose relative proportion varies from batch to batch while negundoside is a pure compound. [table]

[3] = rats, CCl4 1 ml/kg p.o., fed p.o. at 48 h, 24 h, 2 h before and 6 h after, 033 400 mg/kg, 033 (2) and silymarin 50 mg/kg, n=6
[4] = rats, GalN 300 mg/kg s.c., fed p.o. at 48 h, 24 h, 2 h before and 6 h after, 033 400 mg/kg, 033 (2) and silymarin 50 mg/kg, n=6

C[C@]1(O)CC[C@@H]2C(C(=O)O)=CO[C@@H](O[C@@H]3O[C@H](CO)[C@@H](O)[C@H](O)[C@H]3OC(=O)c3ccc(O)cc3)[C@@H]21 [033 (2), 2′-p-hydroxybenzoylmussaenosidic acid]
Hepatoprotective activity in words ([1]; experimentally induced hepatic damage in rodents, CCl4 as hepatotoxin): marked hepatoprotective activity
Hepatic Glutathione (GSH, liver homogenate): mean percent hepatoprotective activity [1, 3]: 45.56%
Hepatic Lipid peroxidation (liver homogenate): mean percent hepatoprotective activity [1, 3]: 45.85%
Serum ALP: mean percent hepatoprotective activity [1, 3]: 53.95%
Serum Bilirubin (mg %): mean percent hepatoprotective activity [1, 3]: 66.66%
Serum GOT (Units): mean percent hepatoprotective activity [1, 3]: 58.05%
Serum OPT (Units): mean percent hepatoprotective activity (reduction of elevated GPT) [1, 3]: 60.34%
Serum Triglycerides (mg %): mean percent hepatoprotective activity [1, 3]: 44.19%
Hepatoprotective activity in words ([2]; experimentally induced hepatic damage with galactosamine (GalN) in rats): marked hepatoprotective activity
Hepatic Glutathione (GSH, liver homogenate): mean percent hepatoprotective activity [2, 4]: 48.10%
Hepatic Lipid peroxidation (LP, liver homogenate): mean percent hepatoprotective activity [2, 4]: 38.65%
Serum ALP: mean percent hepatoprotective activity [2, 4]: 57.57%
Serum Bilirubin (mg %): mean percent hepatoprotective activity [2, 4]: 50.11%
Serum GOT (Units): mean percent hepatoprotective activity [2, 4]: 43.64%
Serum GPT (Units): mean percent hepatoprotective activity (GPT) [2, 4]: 50.75%
Serum Triglycerides (mg %): mean percent hepatoprotective activity [2, 4]: 44.76%
